# Measured values from patent US9481639B2, “Substituted tetracycline compounds for treatment of inflammatory skin disorders” (Paratek Pharmaceuticals, Inc., priority 2006, dated 2016).
# Like-named read-outs stand apart in the source and are kept apart here.
# Tests used:
# [1] = in vitro; format: cell-based
# Protocol: Mammalian cell cytotoxicity was assessed to evaluate potential in vivo risks associated with the tetracycline compounds of the invention. A soluble, non-toxic redox dye (“Resazurin”; Alamar Blue) was used to assess a tetracycline compound's effect on cellular metabolism. At the onset of the experiment, cultures of mammalian COS-1 or CHO cells were washed, trypsinized, and harvested. […] On the next day, serial dilutions of test drug were prepared under sterile conditions and transferred to cell plates. Plates were then incubated under the above conditions for 24 hours. Following the incubation period, the media/drug was aspirated, and 50 μL of resazurin was added. Plates were then incubated under the above conditions for 2 hours and then in the dark at room temperature for an additional 30 minutes. Fluorescence measurements were taken (excitation 535 nm, emission 590 nm) and toxic effects in treated versus control cells were compared based on the degree of fluorescence in each well.
# [2] = test system: B. thetaiotaomicron ATCC 29741; test: Antibacterial MIC, CLSI broth microdilution; format: cell-based
# Protocol: (§1) Gram (−) and gram (+) antibacterial minimum inhibitory concentration (MIC) values (μg/mL) were obtained using CLSI methodology for anti-bacterial susceptibility testing. On each day of testing, serial dilutions of compounds were prepared in microdilution plates using a Tecan robotic workstation. Mueller Hinton broth cultures of representative sensitive and resistant gram negative strains were grown or adjusted to match the turbidity of a 0.5 McFarland standard. 1:200 dilutions were made in an appropriate broth (cation supplemented Mueller Hinton broth) to allow a final inoculum of 1×10^5 cfu. Plates were incubated at 35° C. in ambient air for 18-24 hours, were read spectrophotometrically and checked manually for evidence of bacterial growth. The lowest dilution of compound that inhibited growth was recorded as the MIC. Lysed horse blood was used to supplement broth for testing S. pneumoniae. The MIC's for each compound were assessed against S. aureus, S. pneumoniae, P. acnes, E. coli and B. theta.
# [3] = test system: P. acnes ATCC 6919; test: Antibacterial MIC, CLSI broth microdilution; format: cell-based; settings: Cutibacterium acnes, ATCC6919
# Protocol: as §1
# [4] = test system: P. acnes ATCC 11827; test: Antibacterial MIC, CLSI broth microdilution; format: cell-based; settings: Cutibacterium acnes, ATCC11827
# Protocol: as §1
# [5] = test system: S. aureus RN450; test: Antibacterial MIC, CLSI broth microdilution; format: cell-based; settings: Staphylococcus aureus, 35° C., 18-24 hours
# Protocol: as §1
# [6] = test system: S. pneumoniae 157E - Strep; test: Antibacterial MIC, CLSI broth microdilution; format: cell-based; settings: Streptococcus pneumoniae, 157ESTREP; broth supplemented with lysed horse blood
# Protocol: as §1
# [7] = test system: E. coli ATCC 25922; test: Antibacterial MIC, CLSI broth microdilution; format: cell-based; settings: Escherichia coli, ATCC25922; 35° C., 18-24 hours
# Protocol: as §1
# [8] = test system: E. coli MG. 1655; test: Antibacterial MIC, CLSI broth microdilution; format: cell-based; settings: Escherichia coli, 35° C., 18-24 hours
# Protocol: as §1
# [9] = test system: S. aureus RN450; test: In vivo anti-bacterial activity, S. aureus lethal infection model; settings: Staphylococcus aureus, sc, mice
# Protocol: Groups of five mice were injected intraperitoneally with a lethal dose of S. aureus RN450 in a medium of mucin. Mice were evaluated at 24 hours to determine survival. […] In some instances, a dose response study was performed with the compound such that a PD50 (a dose of compound that protects 50% of the animals) could be calculated.
# [10] = Bacteroides thetaiotaomicron, ATCC29741; read-out: MIC B. thetaiotaomicron ATCC 29741
# [11] = Bacteroides thetaiotaomicron, ATCC29741, read-out: MIC B. thetaiotaomicron ATCC 29741
IC50 at 24 h ([1]; African green monkey) [µg/mL],IC50 at 24 h ([1]; Chinese hamster) [µg/mL],"MIC [2, 10] [µg/mL]",MIC [3] [µg/mL],MIC [4] [µg/mL],MIC [5] [µg/mL],MIC [6] [µg/mL],MIC [7] [µg/mL],MIC [8] [µg/mL],Compound,"MIC [2, 11] [µg/mL]","responders at 5 mg/kg ([9]; lethal IP S. aureus RN450, single subcutaneous dose 5 mg/kg, survival at 24 hours, read-out: Percent Survival) [%]","ED50 ([9]; lethal IP S. aureus RN450, subcutaneous, 24 hours, read-out: PD50 (dose that protects 50% of the animals)) [mg/kg]"
< 35,< 35,,,,,,,,CCONCc1ccc2c(c1O)C(=O)C1=C(O)[C@]3(O)C(=O)C(C(N)=O)=C(O)[C@@H](N(C)C)[C@@H]3C[C@@H]1C2 [AQ],,,
< 35,35 to 75,,,,,,,,CN(C)[C@@H]1C(O)=C(C(N)=O)C(=O)[C@@]2(O)C(O)=C3C(=O)c4c(O)ccc(CNOCC(F)F)c4C[C@H]3C[C@@H]12 [AR],,,
> 75,> 75,,,,,,,,CN(C)[C@H]1C(O)=C(C(N)=O)C(=O)[C@@]2(O)C(O)=C3C(=O)c4c(O)ccc(CNOCC(F)F)c4C[C@H]3C[C@@H]12 [AS],,,
< 35,< 35,,,,,,,,CN(C)[C@@H]1C(O)=C(C(N)=O)C(=O)[C@@]2(O)C(O)=C3C(=O)c4c(O)ccc(CNOCC(F)(F)F)c4C[C@H]3C[C@@H]12 [AT],,,
> 75,> 75,,,,,,,,CN(C)[C@H]1C(O)=C(C(N)=O)C(=O)[C@@]2(O)C(O)=C3C(=O)c4c(O)ccc(CNOCC(F)(F)F)c4C[C@H]3C[C@@H]12 [AU],,,
35 to 75,35 to 75,,,,,,,,CN(C)[C@@H]1C(O)=C(C(N)=O)C(=O)[C@@]2(O)C(O)=C3C(=O)c4c(O)ccc(CN5CCCCO5)c4C[C@H]3C[C@@H]12 [AV],,,
< 35,< 35,,,,,,,,COC(=O)CONCc1ccc(O)c2c1C[C@H]1C[C@H]3[C@H](N(C)C)C(O)=C(C(N)=O)C(=O)[C@@]3(O)C(O)=C1C2=O [AX],,,
< 35,< 35,,,,,,,,"CC(C)ONCc1ccc(O)c2c1C[C@H]1C[C@H]3[C@H](N(C)C)C(O)=C(C(N)=O)C(=O)[C@@]3(O)C(O)=C1C2=O [Compound AN, (4S,4aS,5aR,12aS)-4-Dimethylamino-3,10,12,12a-tetrahydroxy-7-(isopropoxyamino-methyl)-1,11-dioxo-1,4,4a,5,5a,6,11,12a-octahydro-naphthacene-2-carboxylic acid amide]",,,
> 75,> 75,,,,,,,,"CN(C)[C@@H]1C(O)=C(C(N)=O)C(=O)[C@@]2(O)C(O)=C3C(=O)c4c(O)ccc(CNOCCF)c4C[C@H]3C[C@@H]12 [Compound AO, (4S,4aS,5aR,12aS)-4-Dimethylamino-7-[(2-fluoro-ethoxyamino)-methyl]-3,10,12,12a-tetrahydroy-1,11-dioxo-1,4,4a,5,5a,6,11,12a-octahydro-naphthacene-2-carboxylic acid amide]",,,
35 to 75,35 to 75,4 to 8,,,,,,,CON(C)Cc1ccc2c(c1O)C(=O)C1=C(O)[C@]3(O)C(=O)C(C(N)=O)=C(O)[C@@H](N(C)C)[C@@H]3C[C@@H]1C2 [Compound AP],,,
,,4 to 8,< 4,< 4,< 4,< 4,4 to 8,4 to 8,"CC(=NOCC(F)(F)F)c1cc(N)c(O)c2c1C[C@H]1C[C@H]3[C@H](N(C)C)C(O)=C(C(N)=O)C(=O)[C@@]3(O)C(O)=C1C2=O [Compound AW, (4S,4aS,5aR,12aS)-9-Amino-4-dimethylamino-3,10,12,12a-tetrahydroxy-1,1,1-dioxo-7-[1-(2,2,2-trifluoro-ethoxyimino)-ethyl]-1,4,4a,5,5a,6,11,12a-octahydro-naphthacene-2-carboxylic acid amide]",,,
> 75,> 75,4 to 8,< 4,< 4,< 4,< 4,< 4,< 4,"CCON=C(CCN(C)C)c1ccc(O)c2c1C[C@H]1C[C@H]3[C@@H](N(C)C)C(O)=C(C(N)=O)C(=O)[C@@]3(O)C(O)=C1C2=O [Compound I, (4R,4aS,5aR,12aS)-4-Dimethylamino-7-(3-dimethylamino-1-ethoxyimino-propyl)-3,10,12,12a-tetrahydroxy-1,11-dioxo-1,4,4a,5,5a,6,11,12a-octahydro-naphthacene-2-carboxylic acid amide]",,,
> 75,> 75,< 4,< 4,< 4,< 4,< 4,< 4,4 to 8,"CCON=C(C)c1cc(CNCC(C)(C)C)c(O)c2c1C[C@H]1C[C@H]3[C@H](N(C)C)C(O)=C(C(N)=O)C(=O)[C@@]3(O)C(O)=C1C2=O [Compound N, (4S,4aS,5aR,12aS)-4-Dimethylamino-9-[(2,2-dimethyl-propylamino)-methyl]-7-(1-ethoxyimino-ethyl)-3,10,12,12a-tetrahydroxy-1,11-dioxo-1,4,4a,5,5a,6,11,12a-octahydro-naphthacene-2-carboxylic acid amide]",,,
,,,,,,,,,CON(C)Cc1ccc(O)c2c1C[C@H]1C[C@H]3[C@H](N(C)C)C(O)=C(C(N)=O)C(=O)[C@@]3(O)C(O)=C1C2=O [Compound P],4 to 8,,
> 75,> 75,4 to 8,< 4,< 4,< 4,< 4,< 4,4 to 8,CCON=C(C)c1cc(N)c(O)c2c1C[C@H]1C[C@H]3[C@H](N(C)C)C(O)=C(C(N)=O)C(=O)[C@@]3(O)C(O)=C1C2=O [M],,,
35 to 75,< 35,< 4,< 4,< 4,< 4,< 4,< 4,< 4,CN(C)CCC(=NOC(C)(C)C)c1ccc(O)c2c1C[C@H]1C[C@H]3[C@H](N(C)C)C(O)=C(C(N)=O)C(=O)[C@@]3(O)C(O)=C1C2=O [O],,,
< 35,< 35,4 to 8,< 4,< 4,< 4,< 4,> 8,> 8,CC(=NOC(C)(C)C)c1cc(N)c(O)c2c1C[C@H]1C[C@H]3[C@@H](N(C)C)C(O)=C(C(N)=O)C(=O)[C@@]3(O)C(O)=C1C2=O [R],,,
,,,,,,,,,CON(C)Cc1ccc(O)c2c1C[C@H]1C[C@H]3[C@@H](N(C)C)C(O)=C(C(N)=O)C(=O)[C@@]3(O)C(O)=C1C2=O [Y],> 8,,

Compound,IC50 at 24 h ([1]; African green monkey) [µg/mL],IC50 at 24 h ([1]; Chinese hamster) [µg/mL],"MIC [2, 10] [µg/mL]",MIC [3] [µg/mL],MIC [4] [µg/mL],MIC [5] [µg/mL],MIC [6] [µg/mL],MIC [7] [µg/mL],MIC [8] [µg/mL],"MIC [2, 11] [µg/mL]","responders at 5 mg/kg ([9]; lethal IP S. aureus RN450, single subcutaneous dose 5 mg/kg, survival at 24 hours, read-out: Percent Survival) [%]","ED50 ([9]; lethal IP S. aureus RN450, subcutaneous, 24 hours, read-out: PD50 (dose that protects 50% of the animals)) [mg/kg]"
"CC(=NOC(C)(C)C)c1cc(N)c(O)c2c1C[C@H]1C[C@H]3[C@H](N(C)C)C(O)=C(C(N)=O)C(=O)[C@@]3(O)C(O)=C1C2=O [Compound Q, (4S,4aS,5aR,12aS)-9-Amino-7-(1-tert-butoxyimino-ethyl)-4-dimethylamino-3,10,12,12a-tetrahydroxy-1,11-dioxo-1,4,4a,5,5a,6,11,12a-octahydro-naphthacene-2-carboxylic acid amide]",< 35,< 35,4 to 8,< 4,< 4,< 4,< 4,4 to 8,4 to 8,,100,0.45
